One assay addresses T1, GLP-1R (Homo sapiens, UniProt P43220).
T1 construct: host or cells: HEK293
The experiment in a line: In vitro GLP-1R agonistic activity test (cAMP kit). The class given is cell-based. Particulars: HEK293 host cell; without 1% HSA. How it is done: The cell lines were constructed by Wuxi […] (Shanghai) Co., Ltd. See details in Table 1 below. [table] The test compounds were diluted at a 4-fold dilution factor in 10 points, starting from an initial concentration of 30 μM. […]

For another assay, the target named is T2, GIPR (Homo sapiens, UniProt P48546).
T2 construct: host or cells: CHO
T2 sequence (P48546 22-466): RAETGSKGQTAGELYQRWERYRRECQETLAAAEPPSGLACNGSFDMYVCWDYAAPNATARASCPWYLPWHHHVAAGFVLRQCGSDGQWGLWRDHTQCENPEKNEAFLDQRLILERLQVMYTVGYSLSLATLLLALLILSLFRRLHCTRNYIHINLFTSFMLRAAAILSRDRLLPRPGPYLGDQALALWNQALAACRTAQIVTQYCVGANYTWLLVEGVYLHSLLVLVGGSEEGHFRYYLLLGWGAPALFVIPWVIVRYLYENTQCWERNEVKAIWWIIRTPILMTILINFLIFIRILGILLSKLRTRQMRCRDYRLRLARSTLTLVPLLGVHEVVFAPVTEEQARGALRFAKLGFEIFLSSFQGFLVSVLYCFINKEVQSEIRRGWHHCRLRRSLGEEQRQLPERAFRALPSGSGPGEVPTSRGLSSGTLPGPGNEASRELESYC
The experiment in a line: In vitro GIPR agonistic activity test (cAMP kit). The class given is cell-based. Particulars: CHO host cell; without 1% HSA. How it is done:
The cell lines were constructed by Wuxi […] (Shanghai) Co., Ltd. See details in Table 1 below. […] The test compounds were diluted at a 4-fold dilution factor in 10 points, starting from an initial concentration of 30 μM.

For a further assay, the system named is mouse model of obesity. The experiment in a line: In vivo efficacy test in mouse model of obesity. Particulars: high-fat diet obese mice, SC Q3d for 22 days; 10 nmol/kg (Semaglutide 30 nmol/kg). From the text:
To study the weight-lowering effect of the series of polypeptides of the present application in animal model of obesity, and to compare them with the marketed counterparts, Tirzepatide and Semaglutide. Mouse model of obesity was obtained by induction with high-fat diet following the reference literature (MOLECULAR METABOLISM, 18 (2018), P3-14). The specific experimental procedure was as follows: the experimental mice were fed with high-fat diet (Research Diet D12492) for 13 weeks. […] These findings indicated the successful establishment of animal models. The test animals were divided into groups. An appropriate amount of the test samples were added into 20 mM sodium citrate buffer following the experimental protocol, and the mixture was vortexed at room temperature to obtain clear solutions of varying concentrations. The obtained solutions were frozen for further use. During the experiment, animals in the model group and the dosing group were administered by means of subcutaneous injection on the outer thighs. The dosing regimen was once every 3 days […]), for a total period of 22 days. Details were as follows. [table] […] After completing the entire dosing test cycle, the test mice were weighed, and the results were shown below.

For assay [1], the system named is Db/db (Lepr leptin receptor deficient) mice. The experiment in a line: In vivo efficacy test in mouse model of diabetes. Particulars: for Change rate of glycosylated hemoglobin: “−” indicates decrease. An excerpt:
To study the efficacy of the series of polypeptides of the present application in animal model of diabetes, and to compare them with the marketed counterpart Tirzepatide as reported in the literature (MOLECULAR METABOLISM, 18 (2018), P3-14). The glucose-lowering effect of Tirzepatide is much better than that of Semaglutide, and thus Semaglutide was not included in this experiment for comparison. Db/db (Lepr leptin receptor deficient) mice have typical clinical symptoms of diabetes such as extreme obesity, hyperphagia, thirst, and polyuria, and they are ideal animal model of type II diabetes. […] The test animals were divided into groups. An appropriate amount of the test samples were added into 20 mM sodium citrate buffer following the experimental protocol, and the mixture was vortexed at room temperature to obtain clear solutions of varying concentrations. The obtained solutions were frozen for further use. During the experiment, animals in the normal control group, the model group and the dosing group were administered by means of subcutaneous injection on the outer thighs. The dosing regimen was once a day (Qd), for a total period of 4 weeks. Details were as follows: [table] […] The fasting blood glucose level and the change rate of glycosylated hemoglobin level in the test mice were dynamically monitored during the experiment.

In general, EC50 refers to the midpoint of the concentration-response curve. Higher therefore signals a need for much substance.

T1 sequence (P43220 24-463, species assumed): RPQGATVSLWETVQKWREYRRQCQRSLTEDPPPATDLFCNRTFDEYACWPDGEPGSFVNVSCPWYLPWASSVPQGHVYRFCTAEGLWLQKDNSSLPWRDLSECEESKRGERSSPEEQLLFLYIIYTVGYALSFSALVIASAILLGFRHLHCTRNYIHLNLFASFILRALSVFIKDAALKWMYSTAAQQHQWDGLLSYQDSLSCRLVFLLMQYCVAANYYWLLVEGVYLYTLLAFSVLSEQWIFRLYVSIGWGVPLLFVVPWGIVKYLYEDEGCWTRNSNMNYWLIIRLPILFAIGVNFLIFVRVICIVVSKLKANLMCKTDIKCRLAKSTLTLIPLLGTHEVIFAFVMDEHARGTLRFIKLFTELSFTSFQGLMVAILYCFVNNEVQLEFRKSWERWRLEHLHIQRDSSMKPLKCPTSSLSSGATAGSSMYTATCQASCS

Consider `CC[C@H](C)[C@H](NC(=O)[C@H](CC(C)C)NC(=O)[C@H](Cc1c[nH]c2ccccc12)NC(=O)[C@H](C)NC(=O)[C@@H](NC(=O)[C@H](Cc1ccccc1)NC(=O)[C@H](C)NC(=O)[C@@H]1CCCCNC(=O)CN(C(=O)COCCOCCNC(=O)COCCOCCNC(=O)CC[C@H](NC(=O)CCCCCCCCCCCCCCCCCCC(=O)O)C(=O)O)CC(=O)NCCCC[C@H](NC(=O)[C@H](CCCCN)NC(=O)[C@H](CC(=O)O)NC(=O)[C@H](CC(C)C)NC(=O)C(C)(C)NC(=O)[C@@H](NC(=O)[C@H](CO)NC(=O)[C@H](Cc2ccc(O)cc2)NC(=O)[C@H](CC(=O)O)NC(=O)[C@H](CO)NC(=O)[C@@H](NC(=O)[C@H](Cc2ccccc2)NC(=O)[C@@H](NC(=O)CNC(=O)[C@H](CCC(=O)O)NC(=O)C(C)(C)NC(=O)[C@@H](N)Cc2ccc(O)cc2)[C@@H](C)O)[C@@H](C)O)[C@@H](C)CC)C(=O)N[C@@H](C)C(=O)N[C@@H](CCC(N)=O)C(=O)N1)C(C)C)C(=O)N[C@@H](C)C(=O)NCC(=O)NCC(=O)N1CCC[C@H]1C(=O)N[C@@H](CO)C(=O)N[C@@H](CO)C(=O)NCC(=O)N[C@@H](C)C(=O)N1CCC[C@H]1C(=O)N1CCC[C@H]1C(=O)N1CCC[C@H]1C(=O)N[C@@H](CO)C(N)=O` [WX-007], for which the EC50 at GLP-1R came out at 0.026 nM; at GIPR, 0.4 nM.
Consider Tirzepatide, for which, in the assay on mouse model of obesity, the Weight change rate is recorded as −10.20%. Besides, the Fasting blood glucose in assay [1] (Day 0, 5 nmol/kg SC Qd) stood at 26.7 ± 1.4 mmol/L; in assay [1] (Day 7, 5 nmol/kg SC Qd) it was 11.6 ± 1.4 mmol/L; in assay [1] (Day 14, 5 nmol/kg SC Qd), 12.6 ± 1.6 mmol/L; in assay [1] (Day 21, 5 nmol/kg SC Qd), 14.0 ± 1.4 mmol/L. Besides, the “Change rate of glycosylated hemoglobin” value in assay [1] (Day 14, 5 nmol/kg SC Qd) was −15.9 ± 5.4%; in assay [1] (Day 21, 5 nmol/kg SC Qd), −14.3 ± 4.9%; in assay [1] (Day 29, 5 nmol/kg SC Qd) it was −10.2 ± 5.7%.

The record behind these values is US20260055142A1, “PHARMACEUTICAL USE OF POLYPEPTIDE IN PREPARATION OF DRUGS FOR TREATING AND/OR PREVENTING DIABETES AND OBESITY AND RELATED DISEASES THEREOF” (GUANGDONG RAYNOVENT BIOTECH CO., LTD., priority 2022, published 2026).
